Assay results from patent publication US8835489B2, “Compounds of the pterocarpanquinone family, method for preparing the same, pharmaceutical composition containing the new compounds of the pterocarpanquinone family, uses and therapeutic method” (Universidade Federal Do Rio de Janeiro, priority 2008, dated 2014).

Experiments:
TNF-α release by PBMC = test: LPS-stimulated release of TNF-α by PBMC in vitro; format: cell-based, human; conditions: FIG. 3, p<0.05
Description: Mononuclear cells were obtained from peripheral blood of healthy donors by gradient centrifugation in Ficoll. 20 ml peripheral blood were carefully added to 16 mL of Ficoll followed by centrifugation at 1500×g for 30 minutes. Once collected, the PBMC were washed twice with saline and resuspended in culture field RPMI 1640 containing 0.1 mg streptomycin/mL, penicillin 100 U/mL and supplemented with 10% of FCS. The PBMC resuspended in RPMI were seeded in 24-well plate (8×10^5 cells/well). The cells were incubated with LPS at a concentration of 2 μg/mL at 37° C. in 4% CO2 for 2 hours. After incubation with LPS, the supernatant was collected and centrifuged at 14,000×g for 1 minute to rule out any possible cell. The supernatant was stored at −20° C. for subsequent cytokine. […] A group of cells received only the vehicle.

neutrophils in LBA = test: LPS inhalation in mice, neutrophils in bronchoalveolar lavage; conditions: in vivo, FIG. 4, p<0.05 compared to vehicle group
Description: For inhalation of LPS, we used a glass inhalation chamber with a volume of 1 liter, with a capacity of 8 mice. The mice were placed in this chamber for five minutes and inhaled aerosols produced by positive pressure of 2 mL of a suspension of LPS containing 0.5 mg/mL, prepared in physiological saline (NaCl 0.9%). The control group inhaled saline only. Groups of animals were treated with LQB dissolved in physiological saline with 10% ethanol (vehicle) at doses of 1, 10 and 100 mg/kg. The substances were administered in a volume of 200 μL intraperitoneal (ip) 1 hour before LPS inhalation. In parallel, groups of animals were treated with 200 μL of the vehicle. Three hours after inhalation of LPS, animals were sacrificed by cervical dislocation, their tracheas were exposed, cannulated and lungs were washed with saline to a final volume of 1.5 mL in tubes kept at 4° C. […] An aliquot of 300 μL of lavage was used to count and identify the cells and the remainder was centrifuged at 1,500×g for 10 minutes (Sorvall, USA). […] The total number of cells was determined in a cell counter type Coulter Counter (Coulter Electronics Inc.—USA). The identification of different cell types present in BAL cytospin was made after 200 μl of LBA at 80×g for 1 minute (Shandon—USA). The slides prepared from cytospin stained with Diff-Quick kit (Shandon, USA). We counted approximately 200 cells on each slide. […]

## O=C1C2=C(C(=O)c3ccccc31)[C@H]1Oc3ccccc3[C@H]1CO2 [LQB1]
TNF-α release by PBMC
  release of TNF-α by PBMC: inhibiting release of TNF-α
Neutrophils in LBA
  release of neutrophils in LBA: inhibiting the release of neutrophils
